Among the data in patent US9416139B2, “Spiro ring compound as hepatitis C virus (HCV) inhibitor and uses thereof” (SUNSHINE LAKE PHARMA CO., LTD., priority 2012, dated 2016) are EC50 values, retold here.

For one assay, the system named is HCV 1a replicon. In words: HCV GT1a replicon assay in Huh-7 cells. The settings on record: Huh-7 cells transfected with HCV replicon, 72 hours incubation, read-out: EC50 against HCV 1a genotype. The class given is cell-based, Hepatitis C virus. As to the method: (§1) HCV Replicon System was utilized as an evaluation model in the present disclosure for verifying the effects of the compounds disclosed herein on HCV. An HCV Replicon assay was first described in Science, 1999, 285 (5424), 110-3. […] To determine the potential anti-HCV effects of the test compounds, luciferase assay and antibiotic Neomycin resistance gene were tested according to the method described in Science. 1999 Jul. 2; 285 (5424), 110-3 and J. Virol. 2003 March; 77 (5), 3007-19.
(§2) In a word, the compounds disclosed herein were tested by using human hepatic carcinoma cell line which is transfected stably HCV GT1a, GT1b or GT2a replicon respectively, and resistant cells Y93H, L31F, P32L or I302V and wild-type cells HCV 1b. HCV Replicon System disclosed herein containing Neomycin resistance gene and Luciferase Reporter Gene, the level of HCV replication in host cells is characterized by the expression level of the NEO gene expression level or Luciferase Reporter Gene, and the effects of the compounds herein inhibit HCV replication can be evaluated. In this article, a real-time quantitative polymerase chain reaction (qPCR) method was used to detect NEO gene expression level, and chemiluminescence method was used to test Luciferase Reporter Gene expression level.
(§3) 1. Test Method for Measuring EC50 of the Compounds Base on Luciferase Assay.
(§4) The Huh-7 cells transfected with HCV replicons system were seeded into 96-well plates (8,000 cells in 125 μL/well) respectively; each test compound was diluted to desired concentration using 5-fold serial dilutions protocol, 10 doses in duplicate, and added to wells with POD™ 810 Plate Assembler. […] In this paper, experiments were repeated twice and set the holes without compounds as negative control.
(§5) 2. Test Method for Measuring EC50 of the Compounds by Detecting Antibiotic G418 Resistance Gene NEO Gene.
(§6) In this paper, experiments were repeated twice and set the holes without compounds as negative control.

Another assay concerns HCV 1b replicon. Kind of assay: HCV GT1b replicon assay in Huh-7 cells. The format is cell-based, Hepatitis C virus. The settings on record: Huh-7 cells transfected with HCV replicon, 72 hours incubation, read-out: EC50 against HCV 1b genotype. As to the method: as §1, §2, §3, §4, §5, §6
(In general: A replicon is a self-replicating genome or part of one, used to study replication in cells.)

Like-named read-outs stand apart in the source and are kept apart here.

Regarding `COC(=O)N[C@H](C(=O)N1CCC[C@H]1C1=Nc2cc(-c3cnc(-c4ccc(-c5cnc([C@@H]6CCCN6C(=O)[C@@H](NC(=O)OC)C(C)C)[nH]5)cc4)c4c3CC3(CCCC3)C4)ccc2S(=O)(=O)N1)C(C)C` [Example 29], the EC50 (in general, the midpoint of the concentration-response curve) was 0.061 nM in the assay on HCV 1a replicon (Hepatitis C virus) and 0.009 nM in the assay on HCV 1b replicon (Hepatitis C virus).
For `COC(=O)N[C@H](C(=O)N1CCC[C@H]1c1ncc(-c2ccc(-c3ccc(-c4ccc5nc([C@@H]6CCCN6C(=O)[C@@H](NC(=O)OC)C6CCCCC6)[nH]c(=O)c5c4)c4c3CC3(CCCC3)C4)cc2)[nH]1)C1CCCCC1` [Example 15], the EC50 in the assay with HCV 1a replicon (Hepatitis C virus) turned out to be 0.206 nM; with HCV 1b replicon (Hepatitis C virus), 0.142 nM.
With `COC(=O)N[C@H](C(=O)N1CCC[C@H]1C(=O)Nc1ccc(-c2ccc(-c3ccc4nc([C@@H]5CCCN5C(=O)[C@@H](NC(=O)OC)C(C)C)[nH]c(=O)c4c3)c3c2CC2(CCCC2)C3)cc1)C(C)C` [Example 20], the results for the EC50 in the assay with HCV 1a replicon (Hepatitis C virus) and in the assay with HCV 1b replicon (Hepatitis C virus) were 3.67 nM and 0.685 nM, respectively.
For `COC(=O)N[C@H](C(=O)N1CCC[C@H]1c1ncc(-c2ccc(-c3ncc(-c4ccc5nc([C@@H]6CCCN6C(=O)[C@@H](NC(=O)OC)C(C)C)[nH]c5c4)c4c3CC3(CCCC3)C4)c3c2CCC3)[nH]1)C(C)C` [Example 30], the EC50 in the assay on HCV 1a replicon (Hepatitis C virus) came to 0.336 nM; in the assay on HCV 1b replicon (Hepatitis C virus), 0.052 nM.
With `COC(=O)NC(C(=O)N1CCCC1C1=Nc2cc(-c3ccc(-c4ccc(-c5cnc(C6CCCN6C(=O)C(NC(=O)OC)C(C)C)[nH]5)cc4)c4c3CC3(CCCC3)C4)ccc2C(C)(C)N1)C(C)C` (centres unmarked) [Example 36], the EC50 in the assay on HCV 1a replicon (Hepatitis C virus) came to 0.438 nM; in the assay with HCV 1b replicon (Hepatitis C virus), 0.062 nM.
In the case of `COC(=O)N[C@H](C(=O)N1CCC[C@H]1C1=Nc2cc(-c3ccc(-c4ccc(-c5cnc([C@@H]6CCCN6C(=O)[C@@H](NC(=O)OC)C(C)C)[nH]5)cc4)c4c3CC3(CCCC3)C4)ccc2C2(COC2)N1)C(C)C` [Example 4], the EC50 in the assay with HCV 1a replicon (Hepatitis C virus) worked out at 0.089 nM; in the assay with HCV 1b replicon (Hepatitis C virus), 0.016 nM.
Consider `COC(=O)N[C@H](C(=O)N1CCC[C@H]1c1ncc(C#Cc2ccc(-c3ccc4nc([C@@H]5CCCN5C(=O)[C@@H](NC(=O)OC)C(C)C)[nH]c(=O)c4c3)c3c2CC2(CCCC2)C3)[nH]1)C(C)C` [Example 7], for which the EC50 with HCV 1a replicon (Hepatitis C virus) worked out at 0.21 nM; in the assay with HCV 1b replicon (Hepatitis C virus) it was 0.103 nM.
In the case of `COC(=O)N[C@H](C(=O)N1C[C@@H](F)C[C@H]1c1nc(-c2ccc(-c3ccc(-c4ccc5nc([C@@H]6C[C@H](F)CN6C(=O)[C@@H](NC(=O)OC)C(C)C)[nH]c(=O)c5c4)c4c3CC3(CCCCC3)C4)cc2)c[nH]1)C(C)C` [Example 9], the EC50 with HCV 1a replicon (Hepatitis C virus) was 0.439 nM; in the assay with HCV 1b replicon (Hepatitis C virus) it was 0.072 nM.
For `COC(=O)N[C@H](C(=O)N1C[C@@H](C)C[C@H]1n1cnc(-c2ccc(-c3ccc(-c4ccc5nc([C@@H]6C[C@H](C)CN6C(=O)[C@@H](NC(=O)OC)C(C)C)[nH]c(=O)c5c4)c4c3CC3(CCCC3)C4)cc2)c1)C(C)C` [Example 17], the half-maximal effective concentration (EC50) with HCV 1a replicon came out at 0.023 nM; in the assay with HCV 1b replicon it was 0.006 nM.
`COC(=O)N[C@H](C(=O)N1CCC[C@H]1c1ncc(-c2ccc(-c3ncc(-c4ccc5nc([C@@H]6CCCN6C(=O)[C@@H](NC(=O)OC)C(C)C)[nH]c5c4)c4c3CC3(CCCC3)C4)c3ccccc23)[nH]1)C(C)C` [Example 31]: the EC50 with HCV 1a replicon (Hepatitis C virus) amounted to 5.87 nM; with HCV 1b replicon (Hepatitis C virus) it was 0.539 nM.
The like results for `COC(=O)N[C@H](C(=O)N1CCC[C@H]1C1=Nc2cc(-c3ccc(-c4ccc(-c5cnc([C@@H]6CCCN6C(=O)[C@@H](NC(=O)OC)C(C)C)[nH]5)cc4)c4c3CC3(CCCC3)C4)ccc2C(C)(C)N1)C(C)C` [Example 3] were, in that order, 0.537 nM and 0.04 nM.
For the molecule `COC(=O)N[C@@H](C)C(=O)N1CCC[C@H]1c1ncc(-c2ccc(-c3ccc(-c4ccc5nc([C@@H]6CCCN6C(=O)[C@H](C)NC(=O)OC)[nH]c(=O)c5c4)c4c3CC3(CCCC3)C4)cc2)[nH]1` [Example 14], the 50% effective concentration (EC50) is 0.884 nM in the assay with HCV 1a replicon (Hepatitis C virus) and 0.013 nM with HCV 1b replicon (Hepatitis C virus).
For `COC(=O)NC(C(=O)N1CCCC1c1cc(=O)c2cc(-c3ccc(-c4ccc(-c5cnc(C6CCCN6C(=O)C(NC(=O)OC)C(C)C)[nH]5)cc4)c4c3CC3(CCCC3)C4)ccc2[nH]1)C(C)C` (centres unmarked) [Example 35], in that order: 10.6 nM and 0.103 nM.
